# Results from patent US20070059272A1 (priority 2005, published 2007).
# “Also recorded” adds a separate entry of the source.
# What was measured:
# [1] = system: PA-I protein expression in PAO1; assay type: cell-based, Pseudomonas aeruginosa
# lecA (PA-I) mRNA in PAO1 = assay: Northern blot of PA-I (lecA) mRNA in PAO1; assay type: cell-based, Pseudomonas aeruginosa; conditions: for PA-I mRNA by Northern blot: PAO1, 200 ng/ml cytokine in cell culture media, 4 hours
# [2] = system: pyocyanin (PCN) production in P. aeruginosa PAO1; assay type: cell-based, Pseudomonas aeruginosa
# [3] = system: PCN production in PAO1 mutant strains; assay type: cell-based, Pseudomonas aeruginosa
# P. aeruginosa = assay type: cell-based, Pseudomonas aeruginosa
# [4] = system: PA-I expression in P. aeruginosa; assay type: cell-based, Pseudomonas aeruginosa
# PA-I mRNA in PA27853 = PA-I mRNA in PA27853 exposed to Caco-2 cells or cell fractions with and without GalNac; assay type: cell-based, Pseudomonas aeruginosa; conditions: in the presence of GalNac
# Description: Using Caco-2 intestinal epithelial cells, the issue of whether components of intestinal epithelial cells themselves played a role in triggering the expression of PA-I was addressed. Strain PA27853 was exposed to media (apical and basolateral) and Caco-2 cell fractions (cytosolic, nuclear, membrane) at various time intervals. PA-I mRNA was measured in PA27853 in response to the various Caco-2 cell media fractions in the presence and absence of GalNac, a sugar that binds specifically to PA-I and prevents P. aeruginosa adherence to Caco-2 cells. Media alone from Caco-2 cells grown in transwells (apical or basolateral) had no effect on PA-I expression. However, Caco-2 cell membrane fractions triggered the accumulation of a very high abundance of PA-I mRNA (>10 fold increase)-an effect that was attenuated in the presence of GalNac (FIG. 7A). These in vitro findings are in agreement with the above mouse studies showing that PA-I can be activated in response to contact with the intestinal epithelium, yet in the unstressed Caco-2 cell system, luminal contents (apical media) had no effect, similar to the control mice. […]
# [5] = system: intestinal epithelial cells; conditions: cited from earlier work; for adhesion of P. aeruginosa to intestinal epithelial cells: 0.6% solution
# PA-I = PA-I (Pseudomonas aeruginosa, UniProt Q05097); conditions: cited from earlier work
# PA-I, sequence (Q05097 whole entry): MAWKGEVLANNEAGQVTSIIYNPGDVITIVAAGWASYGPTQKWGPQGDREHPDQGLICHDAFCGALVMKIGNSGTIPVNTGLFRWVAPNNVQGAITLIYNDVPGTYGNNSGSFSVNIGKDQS
# PA-IL in P. aeruginosa = conditions: cited from earlier work
# Caco-2 cells = assay: TEER of Caco-2 monolayers inoculated with PA27853 with and without IFN-γ; assay type: cell-based, human
# Description: (§1) In addition, strains were exposed to apical media from Caco-2 cells basolaterally exposed to single and combinations of the various epithelial-derived cytokines. […] Media from Caco-2 cells exposed to various combinations of these cytokines had no effect on PA-I expression. […] Using both ELISA, immunofluorescence microscopy, and flow cytometry, the binding characteristics of IFNγ were determined for both whole bacteria and membrane fractions of P. aeruginosa. […] These effects were also observed with strain PAO1. […] It has been difficult to immunoprecipitate a significant quantity of this protein from PA27853, but it has been determined that this protein can also be immunoprecipitated from E. coli (FIG. 12C). Next, IFN-γ binding specificity, to whole bacterial cells, was determined, using reiterative binding studies in the presence of various gram negatie bacterial strains, including P. aeruginosa. […] Finally, in order to determine if PA-I was functionally expressed in PA27853 in the presence IFN-γ, PA27853 was inoculated onto Caco-2 cell monolayers in the presence of IFN-γ and the effect on barrier dysregulating dynamics of PA27853 against this cell line were assessed to determine if IFN-γ shifted the dynamics. […]
# [6] = system: PA-I expression in P. aeruginosa; assay: PA-I expression in P. aeruginosa exposed to media containing candidate host agents; assay type: cell-based, Pseudomonas aeruginosa; conditions: P. aeruginosa in media containing adenosine, TNFα, IL-2, IL-6, IL-8 or IFNγ
# Description: FIG. 10. Exposure of P. aeruginosa to IFNγ induces PA-I expression and the expression of rhlI. For controls (lane 1, 2) bacteria are suspended in media I (Tryptic soy broth) and media II (DMEM +10% FBS ). Lane 3, 4 are MRNA levels from bacteria exposed to IFNγ and TNFα in DMEM.
# In addition, strains were exposed to apical media from Caco-2 cells basolaterally exposed to single and combinations of the various epithelial-derived cytokines. […] Media from Caco-2 cells exposed to various combinations of these cytokines had no effect on PA-I expression. […] Using both ELISA, immunofluorescence microscopy, and flow cytometry, the binding characteristics of IFNγ were determined for both whole bacteria and membrane fractions of P. aeruginosa. […] These effects were also observed with strain PAO1. […] It has been difficult to immunoprecipitate a significant quantity of this protein from PA27853, but it has been determined that this protein can also be immunoprecipitated from E. coli (FIG. 12C). Next, IFN-γ binding specificity, to whole bacterial cells, was determined, using reiterative binding studies in the presence of various gram negatie bacterial strains, including P. aeruginosa. […]
# [7] = system: rhlI transcription in PAO1; assay: Northern blot of rhlI gene expression in PAO1; assay type: cell-based, Pseudomonas aeruginosa
# C4-HSL synthesis in PAO1 = assay: C4-HSL in PAO1 supernatant by luminescence reporter strain pSB536; assay type: cell-based, Pseudomonas aeruginosa; conditions: PAO1, 100 ng/ml IFN-γ, bacterial supernatants
# [8] = system: whole cells of P. aeruginosa (strain PAO1); assay: IFN-γ binding to whole cells of P. aeruginosa PAO1 (ELISA, immunofluorescence); set-up: species or system Pseudomonas aeruginosa
# Description: IFN-γ direct binding to a protein on the surface of P. aeruginosa, in the course of virulence activation, was also investigated. ELISA binding assays were performed by first coating microtiter plates with P. aeruginosa (strain PAO1), then adding recombinant human IFN-γ (rH IFN-γ), followed by biotin-labeled anti-IFN-γ antibody. IFN-γ avidly bound to whole fixed cells of P. aeruginosa in a dose-dependent manner (FIG. 25A). The ELISA data were confirmed by the results of immunofluorescent imaging of bacterial cells exposed to IFN-γ followed by biotin-labeled anti-IFN-γ antibody and Alexa 594-labeled streptavidin. The vast majority of bacterial cells (73%±3.2% vs. 8.5%±2.5%) bound IFN-γ (FIG. 25B, FIG. 27). The binding capacity of the IFN-γ to the P. aeruginosa was affected by bacterial growth phase (FIG. 28A). In order to localize the binding site of IFN-γ to P. aeruginosa (PAO1), equal protein concentrations of membrane and cytosol fractions of P. aeruginosa were prepared and coated onto ELISA microtiter plates. […] To determine if the observed membrane binding by IFN-γ was protein dependent, membrane fractions were treated with proteinase K for 3 hours and IFN-γ binding assessed.
# [9] = system: whole bacterial cells of PA27853; assay: IFN-γ binding to whole bacterial cells of PA27853; set-up: species or system Pseudomonas aeruginosa
# Description: as §1
# [10] = system: membrane fractions of P. aeruginosa (PAO1); assay: ELISA binding to membrane fractions and solubilized membrane proteins of P. aeruginosa PAO1; set-up: species or system Pseudomonas aeruginosa
# OprF = biological target: T1, OprF (Pseudomonas aeruginosa, UniProt P13794); assay: ELISA binding of IFN-γ to purified OprF; conditions: dose-dependent
# T1 sequence (P13794 25-350): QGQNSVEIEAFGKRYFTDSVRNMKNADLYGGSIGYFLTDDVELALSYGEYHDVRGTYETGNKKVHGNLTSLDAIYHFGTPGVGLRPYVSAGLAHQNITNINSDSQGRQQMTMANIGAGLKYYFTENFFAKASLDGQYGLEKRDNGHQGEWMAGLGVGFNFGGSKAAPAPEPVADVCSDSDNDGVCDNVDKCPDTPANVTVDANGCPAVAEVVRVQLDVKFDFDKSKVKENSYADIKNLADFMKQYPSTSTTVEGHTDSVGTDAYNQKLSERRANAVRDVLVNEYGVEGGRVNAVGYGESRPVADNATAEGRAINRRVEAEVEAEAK
# [11] = system: PA-I protein expression in P. aeruginosa mutant strains; assay: PA-I expression in PAO1 mutant strains exposed to IFN-γ; assay type: cell-based, Pseudomonas aeruginosa
# [12] = system: PA-I promoter activity in reporter strain PA27853/PLL-EGFP
# [13] = biological target: membrane proteins of P. aeruginosa strain PAO1 (whole fixed cells, membrane fractions, solubilized membrane proteins)
# recombinant human Interferon gamma (IFN-γ), sequence (P01579 24-166 limits assumed): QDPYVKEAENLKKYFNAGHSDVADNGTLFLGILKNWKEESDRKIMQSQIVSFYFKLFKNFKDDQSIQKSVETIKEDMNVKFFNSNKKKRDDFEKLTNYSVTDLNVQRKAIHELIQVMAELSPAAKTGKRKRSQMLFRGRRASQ
compound,measurement,setting,value
"CCCC(=O)N[C@H]1CCOC1=O [C4-HSL, C4-homoserine lactone]",PA-I protein expression,[1],responds to varying doses
same,PA-I mRNA by Northern blot,lecA (PA-I) mRNA in PAO1,Induction of PA-I mRNA was observed
same,onset of PCN production versus cell density,[2],shift in the production of PCN at lower cell densities
same,PCN production in rhlR mutant strain,[3],did not restore PCN production
same,PCN production in seven additional mvfR mutants,[3],none of these mutants produced PCN
same,PCN production in ΔGacA and ΔMvfR,[3],unable to restore PCN production
same,PCN production in ΔGacA/gacA,[3],"decreased, albeit minimally"
same,PCN production in ΔMvfR/mvfR,[3],further increased
same,PCN response of MvfR truncation mutant 121-332,[3],did not respond
same,"PCN response of MvfR truncation mutants 1-292, 1-291 and 1-283",[3],did not respond
same,PCN response of MvfR truncation mutants 1-299 and 1-293,[3],enhanced PCN production
same,dynamics of PCN production in ΔGacA/gacA,[3],no effect on the dynamics of PCN production
same,dynamics of PCN production in ΔMvfR/mvfR,[3],shift in PCN production at lower cell densities
same,bacterial growth in TSB media,P. aeruginosa,Neither compound had an effect
same,"PA-I expression, in vitro studies",[4],induced PA-I expression
"CC(=O)N[C@H]1C(O)O[C@H](CO)[C@H](O)[C@@H]1O (stereo partly drawn) [GalNAc, N-acetyl-D-galactosamine]",PA-I mRNA increase in PA27853 densely adhered to Caco-2 cells,PA-I mRNA in PA27853,nearly completely abolished
same,PA-I mRNA increase triggered by Caco-2 cell membrane fractions,PA-I mRNA in PA27853,attenuated
same,adhesion of P. aeruginosa to intestinal epithelial cells,[5],markedly decreased adhesion
same,barrier function of intestinal epithelial cells,[5],do not alter their barrier function
OC[C@H]1O[C@H](OCC2O[C@@H](O)[C@H](O)[C@@H](O)[C@@H]2O)[C@H](O)[C@@H](O)[C@H]1O (stereo partly shown) [mellibiose],adhesion of P. aeruginosa to intestinal epithelial cells,[5],markedly decreased adhesion
same,barrier function of intestinal epithelial cells,[5],do not alter their barrier function
same,binding affinity to PA-I,PA-I,highest binding affinity to date
NC[C@H](O)c1ccc(O)c(O)c1 [norepinephrine],"PA-I expression, in vitro studies",[4],did not change PA-I expression; also recorded: not affected
same,effect on QS-dependent virulence factor PA-IL,PA-IL in P. aeruginosa,can also affect
IFN-γ: human recombinant Interferon gamma,barrier dysregulating effect of PA27853 (TEER),"Caco-2 cells; Caco-2, five hours of incubation",enhanced the barrier dysregulating effect
same,"TEER, IFN-γ alone","Caco-2 cells; Caco-2, no bacteria",Neither media nor IFN-γ alone altered TEER
same,IFN-γ concentration with the greatest increase in PA-I protein expression,[1],100 ng/mL
same,PA-I protein,[1],increased
same,PA-I mRNA by Northern blot,lecA (PA-I) mRNA in PAO1,Induction of PA-I mRNA was observed
same,PA-I mRNA,lecA (PA-I) mRNA in PAO1; early stationary phase of growth,increased
same,"PA-I expression, candidate agents alone",[6],induced a direct effect on PA-I expression
same,rhlI transcription,[7],induced
same,C4-HSL synthesis,C4-HSL synthesis in PAO1,increased
same,pyocyanin production,[2],increased pyocyanin production
same,PCN production induced by IFN-γ in rhlI and rhlR mutant strains,[3],abolished
same,binding to whole fixed cells by ELISA,"[8]; PAO1, recombinant human IFN-γ",avidly bound
same,bacterial cells that bound IFN-γ,"[8]; immunofluorescent imaging, versus 8.5%±2.5% control",73%±3.2%
same,binding to whole bacterial cells,[9],high binding affinity
same,binding to membrane versus cytosol fractions,"[10]; equal protein concentrations, ELISA",preferentially bound to membrane fractions
same,binding to membranes after proteinase K,[10]; proteinase K for 3 hours,decreased
same,binding to solubilized membrane proteins of OprF knockout strains,"[10]; versus wild-type PAO1, ELISA",reduced binding
same,binding to purified OprF,OprF,directly binds
same,"PA-I expression, in vitro studies",[4],induced PA-I expression
same,response to express PA-I,[4],robust response
same,PA-I expression induced by IFN-γ in rhlI and rhlR mutant strains,[11],abolished
same,PA-I protein expression in OprF mutant strains,[11]; 100 ng/ml of IFN-γ,failed to increase the expression of the PA-I protein
same,PA-I protein expression in strain 31899 reconstituted with OprF,[11]; plasmid pUCP24/OprF,recovery of their responsiveness
same,PA-I expression in reporter strain exposed to cytokines,[12],significant increase in PA-I expression
recombinant human Interferon gamma (IFN-γ) (from UniProt P01579 24-166) (ligand),percent of bacterial cells that bound IFN-γ,[13],73%
